Reference: ChEMBL document CHEMBL3430912, “GSK Tres Cantos Anti-Kinetoplastid Screening (TCAKS) Data”

How the values were obtained:
[1] = test system: Trypanosoma brucei brucei; experiment: GSK_TCAKS: pIC50 Trypanosoma brucei viability assay using luminiscence. Assay plates (1536-well) were prepared. T. brucei cultures were harvested and counted in a CASY cell counter. A parasite suspension was prepared at a final concentration of 5 * 10^4 cells/mL in complete HMI9 medium and 6uL was dispensed to all wells containing compounds using a Multidrop Combi dispenser. 6uL of HMI9 media with 0.4% DMSO were dispensed to control columns. Plates were incubated for 24 h at 37C, 5% CO2 then tempered for 10 min at room temperature. ATP content was quantified by adding 4 uL of CellTiter-Glo Reagent (Promega) according to the manufacturer's instructions. Luminescence was measured using a ViewLux.; type: functional, organism-based; details: Lister 427, CASY
[2] = test system: Leishmania donovani; experiment: GSK_TCAKS: pIC50 Leishmania donovani viability assay using fluorescence intensity. Assay plates (1536-well) were prepared by adding 30nL per well of compound. For single shot assay, the final compound concentration was 5uM. […] Briefly, eGFP LdBOB axenic amastigotes were harvested, fixed and counted in a CASY cell counter (Roche-Applied Science). A final concentration of 1.5 * 10^5 cells per well were prepared in amastigote media containing 500 U/mL penicillin/streptomycin (Invitrogen) and 6uL was dispensed to each experimental well using a Multidrop Combi dispenser (Thermo Scientific). 6uL of assay media was dispensed to control columns used as reference for 100% compound response. Following incubation for 72 h at 37C, 5% CO2, 2 uL of resazurin was added to each well at a final concentration of 0.5 mM in phosphate buffered saline (PBS) with IGEPAL (Sigma-Aldrich), 0.05% (v/v).; type: functional, organism-based
[3] = test system: Trypanosoma cruzi; experiment: (§1) GSK_TCAKS: pIC50 Trypanosoma cruzi Imaging: Infected Cells. […] Cells were then washed once with PBS before infection. T. cruzi trypomastigotes, collected at days 5 to 8 after infection from LLC-MK2 parasite infected cultures, were allowed to swim out for 4h at 37C from a centrifuged pellet (2,500 rpm/10 min/room temperature). Trypomastigotes were then collected and counted in a CASY Cell Counter. Trypomastigotes, in supplemented DMEM, were added to H9c2 cultures in a multiplicity of infection of 1 and incubated for 18 h. Cells were washed once with PBS before incubation of the infected H9c2 monolayer with trypsin (Life-Technologies) to detach cells from the flask. Cells were counted in a CASY Cell Counter using a 150 um capillary and their density set at 5 * 10^4 cells per mL in supplemented assay DMEM. Infected H9c2 were dispensed into 384-well poly-lysine coated assay plates at 50uL per well using a Multidrop Combi dispenser. After seeding them, the plates were incubated at 37C, 5% CO2 for 72h. Cultures were then fixed and stained by addition of 50 uL of a solution containing 8% formaldehyde and 4 uM DRAQ5 DNA dye (BioStatus, UK) per well. […] Five images were collected per well for reliable statistical analysis. Automated image analysis was performed with a script developed on Acapella High Content Imaging and Analysis Software (PerkinElmer). Output: percentage of infected cells per well as a second infection marker.; type: functional, organism-based, Rattus norvegicus; details: H9c2, 4 h
[4] = molecular target: Sterol 14-alpha demethylase (Trypanosoma cruzi (strain CL Brener), UniProt Q7Z1V1); experiment: GSK_TCAKS: pIC50 CYP51 from Trypanosoma cruzi.; type: functional
[5] = test system: Leishmania donovani; experiment: (§2) GSK_TCAKS: pIC50 Leishmania donovani Imaging: Amastigotes/Macrophages. Assay plates (384-well) were prepared by adding 250nL of compound to each well. For single shot assay, the final compound concentration was 5 uM. […] Automated image analysis was performed with a script developed on Acapella High Content Imaging and Analysis Software (PerkinElmer). Output: Average number of amastigotes per macrophage cell were reported for each well.; type: functional, organism-based, Homo sapiens; details: THP-1
[6] = test system: Trypanosoma cruzi; experiment: GSK_TCAKS: pIC50 Trypanosoma cruzi Imaging: Amastigotes/Cell. […] Cells were then washed once with PBS before infection. T. cruzi trypomastigotes, collected at days 5 to 8 after infection from LLC-MK2 parasite infected cultures, were allowed to swim out for 4h at 37C from a centrifuged pellet (2,500 rpm/10 min/room temperature). Trypomastigotes were then collected and counted in a CASY Cell Counter. Trypomastigotes, in supplemented DMEM, were added to H9c2 cultures in a multiplicity of infection of 1 and incubated for 18 h. Cells were washed once with PBS before incubation of the infected H9c2 monolayer with trypsin (Life-Technologies) to detach cells from the flask. Cells were counted in a CASY Cell Counter using a 150 um capillary and their density set at 5 * 10^4 cells per mL in supplemented assay DMEM. Infected H9c2 were dispensed into 384-well poly-lysine coated assay plates at 50uL per well using a Multidrop Combi dispenser. After seeding them, the plates were incubated at 37C, 5% CO2 for 72h. Cultures were then fixed and stained by addition of 50 uL of a solution containing 8% formaldehyde and 4 uM DRAQ5 DNA dye (BioStatus, UK) per well. […] Five images were collected per well for reliable statistical analysis. Automated image analysis was performed with a script developed on Acapella High Content Imaging and Analysis Software (PerkinElmer). Output: number of amastigotes per cell as infection level measurement.; type: functional, organism-based, Rattus norvegicus; details: H9c2, 4 h
[7] = test system: Leishmania donovani; experiment: as §2, with “THP-1 Host Macrophages.” for “Amastigotes/Macrophages.”, “THP-1” for “Average number of amastigotes per macrophage”, “cell count” for “cell”; type: functional, organism-based, Homo sapiens
[8] = test system: Leishmania donovani; experiment: as §2, with “Infected Macrophages.” for “Amastigotes/Macrophages.”, “Percent” for “Average number”, “infected” for “amastigotes per”, “cells” for “cell”; type: functional, organism-based, Homo sapiens; details: THP-1
[9] = test system: Trypanosoma cruzi; experiment: as §1, with “H2C9” for “Trypanosoma cruzi”, “H9c2 Host Cardiomyocytes.” for “Infected Cells.”, “Number” for “percentage”, “H9c2 Host Cardiomyocytes nuclei to determine drug-related cytotoxicity.” for “infected cells per well as a second infection marker.”; type: functional, organism-based, Rattus norvegicus; details: H9c2, 4 h
[10] = test system: Trypanosoma cruzi; experiment: GSK_TCAKS: pIC50 Trypanosoma cruzi viability assay using beta-GAL activity. This assay was run at single shot at 5uM compound concentration per well. The biological reagents consisted of NIH-3T3 host cells and trypomastigotes parasitic cells; both cell types were set to a 3.3 * 10^5 cells/mL dilution in assay DMEM by means of a CASY cell counter device using a 60um capillary. 6 uL of the mixture were dispensed per well (about 1 * 10^3 host-cells and 1 * 10^3 parasites) with a Multidrop Combi dispenser. […] In all wells, the percentage of DMSO never exceeded 0.5%. Plates incubated for four days at 37C, 5% CO2. The substrate used for the assay fluorescence intensity (FLINT) readout was resorufin-beta-D-galactopiranoside (Sigma-Aldrich) at 5uM per well. It was diluted in PBS supplemented with the soft detergent Igepal (Fluka).; type: functional, organism-based, Mus musculus; details: Tulahuen, NIH3T3
[11] = GSK_TCAKS: pIC50 HepG2 human cell line viability assay using luminiscence. […] Seeding density was checked to ensure that new mono-layers were not more than 50% confluent at the time of harvesting. Cell suspension was added to 500 mL of the same medium at a final density of 1.2 * 10^5 cells/mL. This cell suspension was dispensed (25 uL, 3000 cells per well) into 384-well clear-bottom plates using a Multidrop Combi dispenser. Prior to addition of the cell suspension, the screening compounds (250 nL) were pre-dispensed into the plates with an Echo liquid handler. Plates were incubated for 48 h at 37C, 5% CO2. After incubation, plates equilibrated at room temperature for 30 min before proceeding to develop the luminescent signal. The signal developer, CellTiter-Glo Reagent, was allowed to equilibrate at room temperature for 30 min and added to the plates (25uL per well) using a Multidrop Combi dispenser. Plates were left for 10 min at room temperature for stabilization and then read using a ViewLux.; type: toxicity, cell-based
[12] = test system: Trypanosoma brucei brucei; experiment: GSK_TCAKS: pIC50 Trypanosoma brucei viability assay using fluorescence intensity. Assay plates (1536-well) were prepared by dispensing 25nL of compound solution per well using an Echo acoustic dispenser (Labcyte).; type: functional, organism-based; details: Lister 427, 2 h

Chain of Sterol 14-alpha demethylase (Q7Z1V1 whole entry): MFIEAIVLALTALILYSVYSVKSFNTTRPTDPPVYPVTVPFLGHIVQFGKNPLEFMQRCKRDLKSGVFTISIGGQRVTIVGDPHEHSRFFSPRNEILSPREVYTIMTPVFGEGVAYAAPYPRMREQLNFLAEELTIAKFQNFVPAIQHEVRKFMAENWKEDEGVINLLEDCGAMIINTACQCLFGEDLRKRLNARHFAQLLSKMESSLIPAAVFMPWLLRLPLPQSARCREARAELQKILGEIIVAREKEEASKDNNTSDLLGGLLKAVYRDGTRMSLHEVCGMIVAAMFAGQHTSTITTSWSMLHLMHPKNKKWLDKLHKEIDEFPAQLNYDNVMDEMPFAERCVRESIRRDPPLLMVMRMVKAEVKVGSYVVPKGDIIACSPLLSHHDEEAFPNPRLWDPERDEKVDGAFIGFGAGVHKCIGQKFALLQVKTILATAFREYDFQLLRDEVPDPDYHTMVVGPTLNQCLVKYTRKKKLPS

SMILES | IC50 [1] [µM] | IC50 [2] [µM] | IC50 [3] [µM] | IC50 [4] [µM] | IC50 [5] [µM] | IC50 [6] [µM] | IC50 [7] [µM] | IC50 [8] [µM] | IC50 [9] [µM] | IC50 [10] [µM] | IC50 at 48 h [11] [µM] | IC50 [12] [µM]
CCCCN(C(=O)c1ccc(NC(=O)C(C)C)cc1)c1ccccc1 | > 39.8 | 1 | > 50.1 | 12.6 | 3.16 | 10 | > 50.1 | 5.01 | > 50.1 | 20 | > 100 | 15.8
Cn1ccnc1CN1CCc2[nH]cnc2C1c1ccccc1OCc1ccccc1 (stereo unspecified) | 0.501 | > 50.1 | > 50.1 | 7.94 | > 50.1 | > 50.1 | > 50.1 | > 50.1 | > 50.1 | 39.8 | > 100 | 0.398
CN1CCC(N(C)c2nccc(N3CCN(C(=O)c4cccc(-c5cccnc5)c4)CC3)n2)CC1 | 1 | > 50.1 | 1.26 | 1.58 | 1.26 | 1 | 7.94 | 1.26 | 7.94 | 0.316 | 39.8 | 0.794
CC(C)c1sc(Cl)nc1C(=O)NCCc1nc(C(=O)Nc2ccc3c(c2)OCO3)cs1 | 25.1 | 3.98 | 1 | 7.94 | 2.51 | 0.631 | > 50.1 | 5.01 | > 50.1 | 4.47 | > 100 | 25.1
Cc1cc(N2CCc3ccccc3C2)nc(Nc2ccc(S(=O)(=O)N3CCOCC3)cc2)n1 | > 39.8 | 3.16 | > 50.1 | > 100 | 1.58 | 25.1 | 25.1 | 5.01 | > 50.1 | > 50.1 | > 100 | 31.6
N#Cc1cccc(Nc2nccc(N3CCC(NS(=O)(=O)c4cccc(C#N)c4)CC3)n2)c1 | 6.31 | 0.631 | 7.94 | 7.94 | 6.31 | 3.16 | > 50.1 | 10 | 31.6 | 1.58 | 50.1 | 6.31
CCC(CC)C(=O)Nc1ccc(-c2nnc(-c3ccc(OC)cc3)o2)cc1 | 0.501 | > 50.1 | 12.6 | 12.6 | > 50.1 | 3.98 | > 50.1 | > 50.1 | > 50.1 | 5.01 | > 100 | 0.501
Cc1nn2c(=O)c3c([nH]c2c1-c1ccc(Cl)cc1)CCCC3 | 0.316 | 1.26 | 1 | > 100 | > 50.1 | 0.251 | 12.6 | > 50.1 | > 50.1 | 0.398 | > 100 | 0.158
